Assay results reported in ChEMBL document CHEMBL3997785, “Optimization of 2-Anilino 4-Amino Substituted Quinazolines into Potent Antimalarial Agents with Oral in Vivo Activity” (J Med Chem, 2017).
Converted amounts (≈) assume the structure as drawn.

Assays:
[1] = Selectivity index, ratio of EC50 for human HepG2 cells to EC50 for Plasmodium falciparum 3D7 asexual blood stage infected in human erythrocytes; format: toxicity, cell-based; conditions: read-out: Ratio EC50
[2] = tested on: HepG2; experiment: Cytotoxicity against human HepG2 cells assessed as growth inhibition after 48 hrs by Cell Titer-Glo assay; format: cell-based; conditions: HepG2, 48 h
[3] = tested on: Plasmodium falciparum; experiment: Antimalarial activity against Plasmodium falciparum 3D7 asexual blood stage infected in human erythrocytes incubated for 72 hrs by LDH assay; format: functional, cell-based; conditions: 3D7, 72 h
[4] = tested on: Plasmodium falciparum; experiment: Antimalarial activity against chloroquine and mefloquine resistant Plasmodium falciparum W2mef infected in human erythrocytes incubated for 72 hrs by LDH assay; format: functional, cell-based
[5] = tested on: Plasmodium falciparum; experiment: Antimalarial activity against Plasmodium falciparum NF54 harboring pfs16-LUC-GFP late stage 4 to 5 gametocytes after 48 hrs by MitoTracker Red staining based confocal microscopy; format: functional; conditions: NF54, 48 h
[6] = tested on: Plasmodium falciparum; experiment: Antimalarial activity against Plasmodium falciparum NF54 harboring pfs16-LUC-GFP ring stage gametocytes after 24 hrs by MitoTracker Red staining based confocal microscopy; format: functional; conditions: NF54, 24 h
[7] = tested on: Plasmodium falciparum; experiment: Antimalarial activity against Plasmodium falciparum NF54 harboring pfs16-LUC-GFP early stage 1 to 3 gametocytes after 48 hrs by MitoTracker Red staining based confocal microscopy; format: functional; conditions: NF54, 48 h
[8] = Half life in human liver microsomes at 1 uM in presence of NADPH by LC-MS method; format: ADME, microsome
[9] = Aqueous solubility of the compound at pH 2 by nephelometry; format: physicochemical
[10] = Half life in mouse liver microsomes at 1 uM in presence of NADPH by LC-MS method; format: ADME, microsome
[11] = Hepatic extraction ratio in human liver microsomes at 1 uM in presence of NADPH by LC-MS method; format: ADME, microsome; conditions: read-out: ERH
[12] = Aqueous solubility of the compound at pH 6.5 by nephelometry; format: physicochemical
[13] = Intrinsic clearance in human liver microsomes at 1 uM in presence of NADPH by LC-MS method; format: ADME, microsome; conditions: read-out: CLH
[14] = Hepatic extraction ratio in mouse liver microsomes at 1 uM in presence of NADPH by LC-MS method; format: ADME, microsome; conditions: read-out: ERH
[15] = Intrinsic clearance in mouse liver microsomes at 1 uM in presence of NADPH by LC-MS method; format: ADME, microsome; conditions: read-out: CLH

| Structure (SMILES) | EC50 [3] [nM] | selectivity ratio [1] | EC50 [2] [nM] | also measured |
| --- | --- | --- | --- | --- |
| Cn1ncc2c(NCc3ccccc3)nc(Nc3ccc(F)cc3)nc21 | 7600 | 3 | 26000 | – |
| Cn1cnc2nc(Nc3ccc(F)cc3)nc(NCc3ccccc3)c21 | 1200 | 7 | 9000 | – |
| COc1ccc(Nc2nc(NCC3CCCO3)c3ccccc3n2)c(OC)c1 (configuration not stated) | 1100 | 19 | 15800 | – |
| Fc1ccc(Nc2nc(NCc3ccccc3)c3cccnc3n2)cc1 | 636 | – | 12400 | – |
| COc1cc([C@@H]2c3cc4c(cc3[C@@H](O[C@@H]3O[C@@H]5CO[C@@H](C)O[C@H]5[C@H](O)[C@H]3O)[C@H]3COC(=O)[C@H]23)OCO4)cc(OC)c1O [ETOPOSIDE] | – | – | 15900 | – |
| Fc1ccc(Nc2nc(NCc3ccccc3)c3ccccc3n2)cc1Cl | 56 | 114 | 6300 | EC50 [4]: 80 nM |
| COc1cccc(Nc2nc(NCC3CCCO3)c3ccccc3n2)c1 (configuration not stated) | – | 33 | 7700 | – |
| Clc1ccc(Nc2nc(NCc3ccco3)c3ccccc3n2)cc1 | – | 71 | 7400 | – |
| CN1CCN(CCNc2nc(Nc3ccc(F)cc3)nc3ccccc23)CC1 | 42 | 362 | 15300 | EC50 [4]: 122 nM |
| Fc1ccc(Nc2nc(NCc3ccccc3)c3sccc3n2)cc1 | 866 | – | 18700 | – |
| C[C@H]1[C@H](OC(=O)CCC(=O)O)O[C@@H]2O[C@@]3(C)CC[C@H]4[C@H](C)CC[C@@H]1[C@@]24OO3 [ARTESUNATE] | 8 | – | – | EC50 [5]: 8 nM; EC50 [6]: 3 nM; EC50 [7]: 3 nM; EC50 [4]: 6 nM |
| COc1cccc(Nc2nc(NCc3ccco3)c3ccccc3n2)c1OC | 1300 | – | 20100 | – |
| CC(O)c1ccc(Nc2nc(NCc3ccco3)c3ccccc3n2)cc1 (configuration not stated) | 702 | – | 12600 | – |
| COc1ccc2nc3cc(Cl)ccc3c(Nc3cc(CN4CCCC4)c(O)c(CN4CCCC4)c3)c2n1 [PYRONARIDINE] | – | – | – | EC50 [5]: 1400 nM; EC50 [6]: 16 nM; EC50 [7]: 25 nM |
| NC(=O)c1ccc(Nc2nc(NCC3CCCO3)c3ccccc3n2)cc1 (configuration not stated) | 691 | 50 | 34600 | – |
| NC(=O)c1ccc(Nc2nc(NCc3ccco3)c3ccccc3n2)cc1 | 569 | 35 | 20000 | – |
| Fc1cc(Nc2nc(NCc3ccccc3)c3ccccc3n2)ccc1Cl | 121 | 55 | 6600 | EC50 [4]: 75 nM |
| COc1ccc(Nc2nc(N3CCOCC3)c3ccccc3n2)cc1 | 7700 | 3 | 25600 | – |
| Fc1ccc(Nc2nc(NCc3ccccc3)c3ccncc3n2)cc1 | 539 | 33 | 17800 | – |
| COC(=O)c1ccc(Nc2nc(NCc3ccco3)c3ccccc3n2)cc1 | 574 | 58 | 33500 | – |
| Clc1cc(Nc2nc(NCc3ccccc3)c3ccccc3n2)ccc1Br | 137 | 40 | 2900 | EC50 [4]: 128 nM |

The remaining molecules from weak to strong by EC50 [3], led by results:

| EC50 [3] [nM] | Structure (SMILES) | selectivity ratio [1] | EC50 [2] [nM] | also measured |
| --- | --- | --- | --- | --- |
| 526 | COc1ccccc1Nc1nc(NCC2CCCO2)c2ccccc2n1 (configuration not stated) | 47 | 24500 | – |
| 418 | CN(C)c1nc(Nc2ccc(F)cc2)nc2ccccc12 | 48 | 20100 | – |
| 317 | Fc1ccccc1Nc1nc(NCC2CCCO2)c2ccccc2n1 (configuration not stated) | 75 | 21300 | – |
| 283 | CN1CCC(Nc2nc(Nc3ccc(Cl)c(F)c3)nc3cccnc23)CC1 | 39 | 11100 | – |
| 274 | CC(=O)Nc1ccc(Nc2nc(NCC3CCCO3)c3ccccc3n2)cc1 (configuration not stated) | 140 | 38300 | – |
| 264 | COc1ccc(Nc2nc(NCc3ccccc3)c3ccccc3n2)cc1 | 32 | 8500 | half-life at 1 µM [8]: 65 min; solubility kinetic [9]: 25 to 50 µM (≈ 8.91 to 17.8 µg/mL); half-life at 1 µM [10]: 14 min; hepatic extraction ratio at 1 µM [11]: 0.51; solubility kinetic [12]: 1.6 to 3.1 µM (≈ 0.57 to 1.1 µg/mL); microsomal CLint at 1 µM [13]: 27 µL/min/mg; hepatic extraction ratio at 1 µM [14]: 0.73; microsomal CLint at 1 µM [15]: 123 µL/min/mg |
| 169 | c1ccc2c(NCC3CCCO3)nc(Nc3ccc4c(c3)OCO4)nc2c1 (configuration not stated) | 51 | 8600 | – |
| 159 | CCOc1ccc(Nc2nc(NCc3ccccc3)c3ccccc3n2)cc1 | 29 | 4500 | – |
| 155 | CNc1nc(Nc2ccc(OC)cc2)nc2ccccc12 | 168 | 26100 | – |
| 144 | Fc1cccc(Nc2nc(NCC3CCCO3)c3ccccc3n2)c1 (configuration not stated) | 39 | 8600 | – |
| 136 | CNc1nc(Nc2ccc(F)cc2)nc2ccccc12 | 119 | 16200 | – |
| 134 | CN1CCC(Nc2nc(Nc3ccc(F)c(Cl)c3)nc3cccnc23)CC1 | 86 | 11500 | – |
| 134 | Clc1cccc(Nc2nc(NCc3ccco3)c3ccccc3n2)c1 | 37 | 5000 | – |
| 128 | CN1CCN(CCNc2nc(Nc3ccc(Cl)c(F)c3)nc3cccnc23)CC1 | 96 | 12300 | – |
| 125 | Brc1ccc(Nc2nc(NCc3ccco3)c3ccccc3n2)cc1 | 153 | 19000 | – |
| 124 | COc1ccc(Nc2nc(NCc3ccco3)c3ccccc3n2)cc1 | 20 | 2500 | – |
| 118 | Fc1ccc(Nc2nc(NCCN3CCOCC3)c3ccccc3n2)cc1 | 256 | 30100 | – |
| 112 | Fc1ccc(Nc2nc(NCc3ccco3)c3ccccc3n2)cc1 | 43 | 4900 | – |
| 110 | CN1CCN(CCNc2nc(Nc3ccc(F)c(Cl)c3)nc3cccnc23)CC1 | 80 | 8900 | – |
| 109 | Cc1ccc(Nc2nc(NCc3ccco3)c3ccccc3n2)cc1 | 54 | 5900 | – |
| 105 | FC(F)(F)c1ccc(Nc2nc(NCc3ccccc3)c3ccccc3n2)cc1 | – | 6400 | – |
| 104 | CN(C)CCNc1nc(Nc2ccc(F)cc2)nc2ccccc12 | 267 | 27900 | – |
| 102 | FC(F)(F)c1ccc(Nc2nc(NCc3ccccc3)c3ccccc3n2)cn1 | 87 | 8900 | – |
| 77 | Fc1ccc(Nc2nc(NCc3ccccc3)c3ccccc3n2)cc1 | 67 | 5100 | – |
| 77 | Fc1ccc(Nc2nc(NCCN3CCCC3)c3ccccc3n2)cc1 | 343 | 26500 | – |
| 64 | CN1CCN(C(=O)CNc2nc(Nc3ccc(F)cc3)nc3ccccc23)CC1 | 473 | 30400 | – |
| 57 | Fc1ccc(Nc2nc(NCc3ccccc3)c3ncccc3n2)cc1 | 320 | 18200 | – |
| 51 | CN1CCC(Nc2nc(Nc3ccc(F)cc3)nc3ccccc23)CC1 | 227 | 11500 | – |
